For the first assay, the system named is L-M cells. Briefly: NGF production and secretion by L-M cells (Furukawa method), NGF level in medium determined by enzyme immunoassay. As to conditions: Mus musculus; compounds of the invention at 10 γ/ml; L-M cells cultured 24 hours; NGF amount relative to cells not treated with test compound; read-out: % Control. The class given is cell-based, mouse. An excerpt: Furukawa et al. reported that L-M cells of a fibroblast cell line from mouse connective tissue can produce and secrete a relatively large amount of NGF, and that catecholamines accelerate such production and secretion of NGF (J. Biol. Chem., 261, 6039-6047, 1986). Following the test method described in this Furukawa paper, but using the compounds of the invention and recognized NGF promoters epinephrine, isoproterenol, L-DOPA, and caffeic acid, NGF production and secretion activities were examined. The test compounds of this invention were employed at 10 γ/ml, and the known compounds were employed at 20 γ/ml.
Culture medium 199 containing 0.5% peptone was used for culturing L-M cells (for the culture medium 199, see, for instance, Morgan et al., Proc. Soc. Exp. Biol. Med., 73, 1 (1950) or Morgan et al. J. Natl. Cancer Inst., 16, 557 (1955). About 5 x 10⁴ of L-M cells were placed in each well of a culture plate with 24 wells, and cultured using a CO₂ incubator (37°C, 5% CO₂) until confluence. After removing the culture medium, the cultured cells were washed once with 199 culture medium containing 0.5% bovine serum albumin (Fraction V, Sigma). The test compounds were added to a specified concentration to a 199 culture medium containing 0.5% bovine serum albumin, and treated with 0.5 ml of L-M cells. After culturing the L-M cells in a CO₂ incubator for 24 hours, the medium was recovered and the NGF level was determined.
NGF was determined using an enzyme immunoassay (Korshing and Thoenen, Proc. Natl. Acad. Sci. USA, 80, 3513-3516, 1983). A solution (each 75 µl) of anti-mouse β-NGF antibody (0.3 µg/ml, pH 9.6; Boehringer Mannheim) was pipetted into each well of a polystyrene plate with 96 wells. After allowing the plate to stand at room temperature for an hour, the antibody was removed by washing three times with detergent solution. A solution (50 µl) of standard β-NGF (Wako Pure Chemical Industries Ltd.) or the recovered medium (50 µl) for each of the test compounds was pipetted into each well. After allowing the plate to stand at room temperature for 6 - 8 hours, the standard β-NGF or test solution was removed and each well was washed three times. A solution (50 µl) of β-NGF monoclonal antibody (100 mU/ml, pH 7.0; Boehringer Mannheim) labelled with β-galactosidase was pipetted into each well. After allowing the plate to stand at 4°C for 15 - 18 hours, enzyme labelled antibody was removed and the wells washed three times followed by pipetting a solution (100 µl) of chlorophenol red-β-D-galactopyranoside (1 mg/ml, pH 7.3; Boehringer Mannheim) into each well. Colour was allowed to develop (2 - 3 hours at room temperature), and the absorbance was determined at 570 nm. The amount of NGF was calculated from a standard curve. The results are expressed as a relative value (%) which is relative to the amount of NGF produced and secreted by cells treated not with the test compounds. The numerical values (% control) are expressed by the mean value in the 3 wells of the control (without addition of the test compounds).
As to `CC(=O)Oc1cc2c(cc1OC(C)=O)CC(C(=O)Nc1ccc(Cl)cc1Cl)CC2` (centres unmarked) [Example 91, N-(2,4-dichlorophenyl)-6,7-diacetoxy-1,2,3,4-tetrahydro-2-naphthamide], the activity at 10 µg/mL was determined as 575%.

On to `CC(=O)Oc1cc2c(cc1OC(C)=O)CC(C(=O)NC13CC4CC(CC(C4)C1)C3)CC2` (centres unmarked) [Example 93, N-(1-adamantyl)-6,7-diacetoxy-1,2,3,4-tetrahydro-2-naphthamide], for which the activity at 10 µg/mL is 941%.

For `CC(=O)Oc1cc2c(cc1OC(C)=O)CCC(C(=O)Nc1ccc(Cl)cc1Cl)=C2` [Example 94, N-(2,4-dichlorophenyl)-6,7-diacetoxy-3,4-dihydro-2-naphthamide], the activity at 10 µg/mL stood at 459%.

Consider `CC(=O)Oc1cc2c(cc1OC(C)=O)CCC(C(=O)Nc1cnc3ccccc3c1)=C2` [Example 95, N-(3-quinolyl)-6,7-diacetoxy-3,4-dihydro-2-naphthamide], for which the activity at 10 µg/mL was determined as 341%.

Turning to `CC(=O)Oc1cc2c(cc1OC(C)=O)CCC(C(=O)NC13CC4CC(CC(C4)C1)C3)=C2` [Example 96, N-(1-adamantyl)-6,7-diacetoxy-3,4-dihydro-2-naphthamide], the activity at 10 µg/mL is 558%.

The assay is the same for the next values; noted with them: Mus musculus; known compounds at 20 γ/ml; L-M cells cultured 24 hours; NGF amount relative to cells not treated with test compound; read-out: % Control.
`N[C@@H](Cc1ccc(O)c(O)c1)C(=O)O` [L-DOPA, reference compound]: the activity at 20 µg/mL worked out at 117 ± 7%.

For `O=C(O)/C=C/c1ccc(O)c(O)c1` [caffeic Acid, caffeic acid, reference compound], the activity at 20 µg/mL amounted to 123 ± 14%.

As to `CNC[C@H](O)c1ccc(O)c(O)c1` [epinephrine, reference compound], the activity at 20 µg/mL is 140 ± 24%.

As for `CC(C)NCC(O)c1ccc(O)c(O)c1` (centres unmarked) [isoproterenol, reference compound], the activity at 20 µg/mL was found to be 168 ± 22%.

Still in this assay, the particulars now being: compounds of the invention at 10 γ/ml; L-M cells cultured 24 hours; NGF amount relative to cells not treated with test compound.
Regarding `CC(=O)Oc1ccc(CCC(=O)Nc2cc(Cl)ccc2Cl)cc1OC(C)=O` [Example 1, N-(2,5-dichlorophenyl)-3,4-diacetoxyphenylpropionamide], the “% Control” value was 201%.

Turning to `CC(=O)Oc1ccc(CCCC(=O)NC23CC4CC(CC(C4)C2)C3)cc1OC(C)=O` [Example 46, N-(1-adamantyl)-3,4-diacetoxyphenylbutyrylamide], the “% Control” value was 939%.

The record behind these values is EP0399814A2, “Phenol derivatives for promoting human nerve growth factor” (Sankyo Company Limited, priority 1989, dated 1990).
